The results in this text go back to patent US20220073470A1, “INHIBITORS OF CGAS ACTIVITY AS THERAPEUTIC AGENTS” (BELLBROOK LABS, LLC, priority 2019, published 2022).

≈ marks a conversion by molar mass, not a printed value. Read-outs that look alike come from different tables or passages of the source. Where only a bound is given, the exact number is not on record here.

Data set [1] is described as follows: Mouse microsomal stability (NADPH). The settings on record: liver microsomes, read-out: Mouse MS Stability (NADPH) t1/2. Type of data set: in vitro ADME. Here is the method:
(§1) Compounds are tested in Caco-2 and MDR1-MDCK permeability assays to provide a measure of intestinal absorption, blood-brain-permeability and efflux by P-glycoprotein (P-gp), a frequent obstacle to effective CNS delivery. CNS drugs are associated with high passive membrane permeability (Papp>1×10^−6 cm/sec) and have low efflux ratios (Papp(B−A)/Papp(A−B)<2.5). Metabolic stability is tested using mouse and human liver microsomes incubated with NADPH for CYP-dependent metabolism and with UDPGA for glucuronidation. Compounds are tested for pharmacokinetics and brain penetration in mice using oral, intravenous and intraperitoneal administration.
In general terms: Liver microsomes are vesicles of endoplasmic reticulum, rich in cytochrome P450 enzymes.

Data set [2] concerns ISG mRNA expression. Kind of data set: ISG mRNA expression in THP1-dual cells. The class given is cell-based. Here is the method: (§2) FIG. 5A illustrates activity of IFNβ expression of compound 14 in three different experiments. FIG. 5B illustrates the ISG mRNA expression of compound 14 in THP1-dual cells. Compound 14 in concentration of 200 μM was evaluated after 24 hours.
(§3) Cellular activity of several compounds of formula (I) was assessed in […]. For example, FIG. 5A illustrates activity of IFNβ expression, and FIG. 5B illustrates the ISG mRNA expression of compound 14 in THP1-dual cells.

The test system of data set [3] is NFκB-driven transcription. Kind of data set: NFκB-SEAP reporter, THP1 dual-cell reporter system. The settings on record: Homo sapiens, THP-1; read-out: Cellular NFκB-SEAP. Type of data set: cell-based. The source says: (§4) FIG. 4 includes a schematic showing the THP1 dual-cell reporter system: secreted luciferase reports on IRF3-driven transcription; secreted alkaline phosphatase reports on NFκB-driven transcription, both downstream of cGAS/STING.

Data set [4] addresses T1, full-length human cGAS (Homo sapiens, UniProt Q8N884).
T1 construct: The cGAS assay was used to screen 100,000 compounds with full-length human cGAS; 6xHis; made in house
Kind of data set: cGAS enzymatic assay (FP readout), inhibition of cGAS. Type of data set: biochemical. As for the experimental part:
Some exemplary compounds of the disclosure were tested for inhibition of cGAS (30 nM). The results are provided in Table 1 where “A” indicates an IC50 of less than 100 nM, “B” indicates an IC50 of greater than 100 nM and less than 500 nM, “C” indicates an IC50 of greater than 500 nM and less than 1 μM, “D” indicates an IC50 of greater than 1 μM and less than 10 μM, and “E” indicates an IC50 of greater than 10 μM.
A homogenous cGAS enzymatic assay was developed with fluorescence polarization (FP) and time-resolved Forster resonance energy transfer (TR-FRET) readouts (FIG. 2A-D). The cGAS assay was used to screen 100,000 compounds with full-length human cGAS (FIG. 2E), resulting in the identification of novel chemotypes, two of which are further developed in a structure-driven hit-to-lead study (Table 3, below). The assay performance was robust, as indicated by respective Z and Z′ values of 0.59 and 0.63 in the screen; compounds with polarization values greater than three SDs from the mean were considered hits; a scatterplot from 10 plates (3,200 compounds) is shown in FIG. 2D.
(§5) Potency and MOA studies, including Mn^2+ sensitivity, are performed using the cGAS enzymatic assay. Dose response experiments are used to determine IC50 values under basal conditions (5 mM MgCl2, 100 μM ATP/GTP), and with the addition of physiological levels of Mn (0.2 mM) using human and mouse cGAS. Ligand optimization is driven by potency with the human enzyme; potency with mouse cGAS informs selection of an appropriate disease model for efficacy studies. Competition with ATP and GTP is assessed by comparing basal IC50 values to those in the presence of saturating ATP or GTP, and subsequently confirmed by measuring velocity vs. substrate at varying ATP or GTP levels. Inhibitor residence times (1/koff) are used as a key parameter for prioritizing compounds and driving SAR, because a longer residence time often results from an allosteric mechanism, and can also correlate with improved cellular activity. The cGAS enzymatic assay is used with the jump dilution method to measure residence times (inhibitor dissociation rates), as described for kinases using the very similar ADP assay. Biophysical methods, including SPR and TSAn, are used as orthologous methods for residence time measurements and kd estimates.

Data set [5] can be described thus: Solubility Ksol in PBS pH 7.4. The class given is physicochemical. The settings on record: pH 7.4, aqueous buffer, kinetic from dmso stock.
In data set [6] the test system is IRF3-driven transcription. Kind of data set: IRF3-Luc reporter, THP1 dual-cell reporter system. Type of data set: cell-based. The settings on record: Homo sapiens, THP-1; read-out: Cellular IRF3-Luc.
Source text: as §4

Data set [7] relates to kinases (Abl1, PKA, TBK1), GTPase (Rac1), phosphodiesterase (PDE4A), ENPP1. Kind of data set: Selectivity panel of nucleotide-utilizing enzymes. The class given is biochemical. Here is the method: The compounds of formula (I) of the disclosure were tested for improved potency and other drug-like properties.
A panel of nucleotide-utilizing enzymes that included kinases (Abl1, PKA, TBK1—which transduces cGAS/STING signals, see FIG. 4) a GTPase (Rac1), a phosphodiesterase (PDE4A), and ENPP1, a nucleotidase that degrades cGAMP, was used preliminarily. cGAS assays were used to perform dose response measurements with cGAS inhibitors. In addition to these enzymes, inhibitors are tested with three other members of the oligoadenylate synthases (OAS), nucleic acid sensors that activate innate immunity via production of short, 2′-5′ oligoadenylate second messengers. Methods for expression and purification of the human and/or porcine enzymes in E. coli or baculovirus-infected insect cells have been developed as well as a simple, absorbance-based assay using commercially available pyrophosphate kit. In addition, an FP-based assay (competitive displacement of a fluor-cGAMP tracer) is developed to test compounds as ligands for STING.

Data set [8] deals with Mouse cGAS (Mus musculus, UniProt Q8C6L5). The data set is described as follows: cGAS enzymatic assay with mouse cGAS. The class given is biochemical. Here is the method:
as §5

Data set [9] can be described thus: Human microsomal stability (NADPH). Type of data set: in vitro ADME. The settings on record: liver microsomes, read-out: Human MS Stability (NADPH) t1/2. As for the experimental part:
as §1

For data set [10], the system named is DNA-stimulated IFNβ expression. The data set is described as follows: IFNβ ELISA, DNA-stimulated IFNβ expression. Type of data set: cell-based. As for the experimental part:
as §2, §3

In data set [11] the test system is P-glycoprotein (MDR1). Kind of data set: MDCK-MDR permeability and efflux. The settings on record: dog, MDCK-MDR1. The class given is in vitro ADME, Canine. Here is the method: as §1
In data set [12] the test system is Madin-Darby Canine Kidney cells-Multi Drug Resistance pump. The data set is described as follows: MDCK-MDR permeability and efflux. The class given is in vitro ADME. As for the experimental part: as §1
Data set [13] addresses cGAS (Homo sapiens, UniProt Q8N884). Kind of data set: SPR binding to cGAS. The settings on record: enzymatic analysis and biophysical binding studies (SPR, TSA). The source says: Following confirmation of hits at three concentrations and removal of compounds with visually evident reactivity or metabolic liabilities, non-stoichiometric inhibitors, aggregators, DNA intercalators and redox-active compounds were triaged using established assays. Initial SAR based on more than 100 commercially available analogs provided additional confidence that the compounds of the disclosure were bonafide inhibitors, and informed potential scaffold hops and toleration for modifications. The compounds of formula (I) of the disclosure were selected for advancement into a hit-to-lead study. […] The compounds of formula (I) of the disclosure are competitive with GTP and its potency is enhanced in the presence of Mn^2+.
Potency and MOA studies, including Mn^2+ sensitivity, are performed using the cGAS enzymatic assay. Dose response experiments are used to determine IC50 values under basal conditions (5 mM MgCl2, 100 μM ATP/GTP), and with the addition of physiological levels of Mn (0.2 mM) using human and mouse cGAS. Ligand optimization is driven by potency with the human enzyme; potency with mouse cGAS informs selection of an appropriate disease model for efficacy studies. Competition with ATP and GTP is assessed by comparing basal IC50 values to those in the presence of saturating ATP or GTP, and subsequently confirmed by measuring velocity vs. substrate at varying ATP or GTP levels. […]
(Surface plasmon resonance follows binding to a sensor surface in real time, without labels.)

T1 sequence (Q8N884 whole entry): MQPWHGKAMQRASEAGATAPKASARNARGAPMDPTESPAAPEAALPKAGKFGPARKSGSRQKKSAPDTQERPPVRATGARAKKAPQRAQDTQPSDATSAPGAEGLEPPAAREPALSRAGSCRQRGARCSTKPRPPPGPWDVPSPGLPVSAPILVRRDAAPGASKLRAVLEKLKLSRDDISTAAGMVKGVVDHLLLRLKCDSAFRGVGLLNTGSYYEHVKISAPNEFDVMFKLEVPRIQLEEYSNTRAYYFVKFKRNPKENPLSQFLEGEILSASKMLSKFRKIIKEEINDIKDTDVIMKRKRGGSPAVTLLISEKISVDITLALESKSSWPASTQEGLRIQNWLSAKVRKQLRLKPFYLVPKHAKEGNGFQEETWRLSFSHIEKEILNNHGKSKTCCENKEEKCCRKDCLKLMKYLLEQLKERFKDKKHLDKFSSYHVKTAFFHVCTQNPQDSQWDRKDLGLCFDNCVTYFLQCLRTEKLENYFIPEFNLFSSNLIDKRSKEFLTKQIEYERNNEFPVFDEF
Mouse cGAS, sequence (Q8C6L5 whole entry): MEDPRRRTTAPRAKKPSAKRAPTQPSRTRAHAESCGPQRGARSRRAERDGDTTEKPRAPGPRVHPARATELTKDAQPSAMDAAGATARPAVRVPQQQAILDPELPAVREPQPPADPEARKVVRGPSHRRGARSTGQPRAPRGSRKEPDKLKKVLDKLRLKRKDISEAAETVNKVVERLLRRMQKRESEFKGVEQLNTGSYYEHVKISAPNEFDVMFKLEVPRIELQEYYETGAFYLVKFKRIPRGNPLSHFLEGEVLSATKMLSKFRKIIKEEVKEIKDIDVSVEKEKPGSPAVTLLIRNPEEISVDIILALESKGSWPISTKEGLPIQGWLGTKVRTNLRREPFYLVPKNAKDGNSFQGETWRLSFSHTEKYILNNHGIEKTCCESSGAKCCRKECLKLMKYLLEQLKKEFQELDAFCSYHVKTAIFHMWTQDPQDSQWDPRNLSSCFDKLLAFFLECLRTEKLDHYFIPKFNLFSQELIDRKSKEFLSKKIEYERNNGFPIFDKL
cGAS, sequence (Q8N884 whole entry): as the sequence (Q8N884 whole entry) above

In the case of `COc1cc2c(-n3ccnc3)ccnc2cc1Cl` [Compound 14, 7-chloro-4-(1H-imidazol-1-yl)-6-methoxyquinoline], the half-life in [1] was found to be 0.355 h; in data set [9], 1.93 h. Further, in data set [2], the “ISG expression” value is on record as “inhibition”. The “ISG expression (fold decrease @ 200 μM)” value in data set [2] (200 μM, THP1-dual cells, 24 hours) was 2-10×. Besides, the IC50 in data set [3] is 59000 nM; in [4] (100 μM ATP/GTP, read-out: Enzymatic FP Std (100 μM ATP/GTP)) it was 391 nM; in data set [4] (1 mM ATP/GTP, read-out: Enzymatic FP Physiological (1 mM ATP/GTP)), 1920 nM; in data set [4] (5 mM Mg2+, 0.2 mM Mn2+, read-out: IC50 (5 mM Mg^2+, 0.2 mM Mn^2+)), 48 ± 2 nM; in data set [4] (5 mM Mg2+, no Mn2+, read-out: IC50 (5 mM Mg^2+)) it was 550 ± 10 nM; in data set [4] (cGAS (30 nM), no Mn2+, read-out: Inhibition cGAS (IC50 class)), 500 to 1000 nM. For the same compound, the IC50 is less than 100 nM in [4] (cGAS (30 nM), with Mn2+, read-out: Inhibition cGAS + Mn^2+ (IC50 class)); 75000 nM in data set [6]; 93 nM in data set [8]; 68000 nM in data set [10] (read-out: Cellular IFNβ ELISA). Moreover, in [4] (competition with substrates), the MOA entry is given as “GTP Competitive”. The compound further came in with a solubility in [5] of 224 µM (≈ 58.2 µg/mL). Moreover, in data set [7], the “Off-Target Activity (Kinase, PDE, GTPase, ENPP1)” value was “None”. Besides, the “Inhibitory activity with panel of nucleotide-utilizing enzymes” value in data set [7] (at 200 μM, kinases, a GTPase, a phosphodiesterase, a nucleotidase) is given as “lack of inhibitory activity”. Besides, the “DNA-stimulated IFNβ expression as measured by ELISA” value in [10] is listed as “specific inhibition”. In addition, in [11], the efflux ratio is 0.5. This compound showed a Papp A→B in [11] (A→B) of 76.7 ×10⁻⁶ cm/s. Further, in data set [12], the MDR-1-mediated export entry is “no indication of MDR-1-mediated export”. Besides, the “Binding stoichiometry to cGAS” value in data set [13] is “Stoichiometric binding (1:1)”.

As a reminder, the solubility is the dissolved amount per volume that the medium holds. A lower solubility goes with a poorly soluble substance. As a reminder, the efflux ratio is the permeability from basolateral to apical divided by that in the opposite direction, in the common usage. For orientation: Papp A→B means the apparent permeability from the apical to the basolateral side of a cell layer. Lower therefore signals poor permeation.
